Source: publication PMC8015227, “Understanding the Metabolism of Proteolysis Targeting Chimeras (PROTACs): The Next Step toward Pharmaceutical Applications” (Journal of Medicinal Chemistry, 2020)
Read-outs that look alike come from different tables or passages of the source.

Tests used:
[1] = Metabolic stability in cryopreserved human hepatocytes; type: in vitro ADME; details: human, cryopreserved human hepatocytes (pooled, suspension)
Procedure: Cryopreserved human hepatocytes (pooled suspension hepatocytes, Gibco) were thawed placing in a 37 °C shaking water bath according to the manufacturer’s specifications and resuspended in Williams E medium (WEM) to have 1 × 10^6 cells/mL. Samples with the test compound at 1 μM were incubated at 37 °C, and aliquots of 50 μL were collected at 0, 10, 30, 60, 120, and 240 min. The incubations were quenched 1:3 with ice-cold acetonitrile (containing 1 μM labetalol as the internal standard). Samples were then centrifuged at 12000 rpm for 5 min at 4 °C. The supernatant was concentrated by evaporation under a nitrogen stream and reconstituted with DMSO. Blank was prepared similarly but in the absence of the investigated compounds.
(§1) A Thermo Q-exactive mass spectrometer (Thermo Fisher Scientific, Waltham, MA) was used. The LC system, governed by Chromeleon X-press software, consists of a Binary pump, a thermostated autosampler, and a column compartment, all Dionex Ultimate 3000 series modules (Thermo Fisher Scientific, Waltham, MA). A volume of 2 μL was injected for each sample. Chromatographic separation of analytes was conducted in reverse-phase chromatography. In brief, a Luna Omega 1.6 μm Polar (C18, 2.1 mm × 150 mm) was used, and the mobile phases consisted of water (A) and acetonitrile (B), both containing formic acid at 0.1%. The LC flow was set at 0.400 mL/min in a 12 min gradient elution as follows: 99.5:0.5 (A/B) to 5:95 (A/B) over 10 min, 5:95 (A/B) for 2 min, and then reversion back to 99.5:0.5 (A/B) over 2.5 min. The column was operating at a constant temperature of 40 °C.

CYP3A4 = CYP3A4 (Homo sapiens, UniProt P08684); assay: in vitro; details: pH 7.4
Sequence of CYP3A4 (P08684 whole entry): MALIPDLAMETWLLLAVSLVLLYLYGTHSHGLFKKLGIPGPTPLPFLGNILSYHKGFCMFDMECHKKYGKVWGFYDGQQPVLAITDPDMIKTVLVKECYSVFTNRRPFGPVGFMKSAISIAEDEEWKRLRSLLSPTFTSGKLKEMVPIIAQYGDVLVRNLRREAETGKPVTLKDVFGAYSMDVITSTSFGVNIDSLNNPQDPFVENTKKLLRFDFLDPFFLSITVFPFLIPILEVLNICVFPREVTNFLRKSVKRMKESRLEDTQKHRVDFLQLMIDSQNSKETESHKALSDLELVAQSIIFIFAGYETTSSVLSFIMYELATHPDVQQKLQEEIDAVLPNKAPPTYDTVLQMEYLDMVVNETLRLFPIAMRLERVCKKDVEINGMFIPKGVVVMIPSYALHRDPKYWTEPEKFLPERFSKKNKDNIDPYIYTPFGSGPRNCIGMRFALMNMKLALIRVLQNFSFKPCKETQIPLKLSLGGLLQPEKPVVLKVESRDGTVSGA
Procedure: (§2) Metabolism of the selected compounds was evaluated upon incubation with human liver cytosol (Gibco) and supersome recombinant CYP isoforms 3A4 expressed in baculovirus-infected insect cells (Gibco). For metabolism in CYP3A4, test compounds (1 μM) were incubated in 0.1 M potassium phosphate buffer (pH 7.4) and allowed to equilibrate at 37 °C. Freshly prepared 25 mM nicotinamide adenine dinucleotide phosphate (NADPH, 1 mM final concentration) was added to the incubation mixture to start the reaction. For metabolism in human liver cytosol, reactions were initiated by adding test compounds (1 μM) to the mix reaction constituted by the human liver cytosol (1 mg/mL) prewarmed in potassium phosphate buffer (pH 7.4). […] In both procedures, aliquots (50 μL) of the incubation mix were removed at 0, 10, 20, 30, and 60 min (CYP3A4) or 0, 30, 60, and 90 min (human liver cytosol) and added to 50 μL of ice-cold acetonitrile quench solution (internal standard, 1 μM labetalol) to stop the reaction. Samples were then centrifuged at 12 000 rpm for 5 min at 4 °C. The supernatant was concentrated by evaporation under a nitrogen stream and reconstituted in DMSO. The blank was prepared similarly but in the absence of the investigated compounds. Samples were then analyzed by LC–MS/MS (see the Analytical procedure).
as §1

[2] = molecular target: T1, aldehyde oxidase (hAOX, AOX1) (Homo sapiens, UniProt Q06278); assay: Metabolism in human liver cytosol with/without hydralazine (hAOX); type: in vitro ADME; details: human, human liver cytosol, pH 7.4; Figure 7A
T1 construct: human aldehyde oxidase (hAOX), a cytosolic drug-metabolizing enzyme expressed in the human liver; tissue Gibco; host or cells: human liver cytosol
T1 sequence (Q06278 1-1338): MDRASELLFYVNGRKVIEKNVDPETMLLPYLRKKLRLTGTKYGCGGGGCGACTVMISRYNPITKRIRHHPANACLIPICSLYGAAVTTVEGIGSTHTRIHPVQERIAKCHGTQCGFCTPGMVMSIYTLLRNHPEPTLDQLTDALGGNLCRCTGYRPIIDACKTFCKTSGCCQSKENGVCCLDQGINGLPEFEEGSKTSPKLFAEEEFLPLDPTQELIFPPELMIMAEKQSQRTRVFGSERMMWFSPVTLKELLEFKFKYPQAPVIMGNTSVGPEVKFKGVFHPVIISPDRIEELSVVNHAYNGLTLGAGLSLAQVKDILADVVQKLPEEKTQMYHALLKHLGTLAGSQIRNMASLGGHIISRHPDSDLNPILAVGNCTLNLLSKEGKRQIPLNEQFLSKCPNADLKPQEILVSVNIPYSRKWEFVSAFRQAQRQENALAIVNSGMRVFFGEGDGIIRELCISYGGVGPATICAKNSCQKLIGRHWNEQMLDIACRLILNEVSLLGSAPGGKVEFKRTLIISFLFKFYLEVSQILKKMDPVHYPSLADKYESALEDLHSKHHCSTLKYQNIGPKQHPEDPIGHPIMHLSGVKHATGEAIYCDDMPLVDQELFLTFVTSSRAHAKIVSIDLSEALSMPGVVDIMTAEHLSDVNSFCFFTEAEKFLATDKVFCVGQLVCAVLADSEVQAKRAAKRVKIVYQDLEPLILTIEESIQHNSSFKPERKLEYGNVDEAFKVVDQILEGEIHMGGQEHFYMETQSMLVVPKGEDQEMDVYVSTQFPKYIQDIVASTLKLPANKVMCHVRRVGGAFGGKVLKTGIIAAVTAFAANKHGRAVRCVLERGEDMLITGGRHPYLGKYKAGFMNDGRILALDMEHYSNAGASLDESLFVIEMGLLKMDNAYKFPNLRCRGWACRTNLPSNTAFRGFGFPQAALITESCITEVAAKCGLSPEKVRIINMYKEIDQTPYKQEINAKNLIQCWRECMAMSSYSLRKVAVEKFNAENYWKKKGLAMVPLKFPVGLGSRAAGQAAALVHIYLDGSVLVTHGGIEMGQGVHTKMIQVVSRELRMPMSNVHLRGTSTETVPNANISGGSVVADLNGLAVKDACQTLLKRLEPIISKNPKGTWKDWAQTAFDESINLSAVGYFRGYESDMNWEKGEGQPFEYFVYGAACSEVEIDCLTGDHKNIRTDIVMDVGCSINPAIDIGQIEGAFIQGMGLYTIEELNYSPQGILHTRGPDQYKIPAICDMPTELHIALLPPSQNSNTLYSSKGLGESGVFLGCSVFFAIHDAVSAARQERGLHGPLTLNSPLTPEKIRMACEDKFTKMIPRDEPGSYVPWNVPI
Procedure: as §2, §1

[3] = molecular target: T2, human aldehyde oxidase (hAOX) in human liver cytosol (Homo sapiens, UniProt Q06278); assay: as above; type: in vitro ADME; details: for reactions observed in human liver cytosol: 30, 60, 90 min, absence and presence of hydralazine, both in the VHL ligand moiety; for hAOX percentage of substrate left at the final time point of analysis / hAOX t1/2: supplement CSV; for hAOX percentage of substrate left at the final time point of analysis: in brackets, final time point 90 min; for hAOX t1/2: human liver cytosol 1 mg/mL, up to 90 min
T2 construct: human aldehyde oxidase (hAOX), a cytosolic drug-metabolizing enzyme expressed in the human liver; tissue Gibco; host or cells: human liver cytosol
T2 sequence (Q06278 1-1338): T1 sequence (Q06278 1-1338)
Procedure: as §2, §1

[4] = Table S1, PROTACs, cryopreserved human hepatocytes, read-out: t1/2
[5] = supplement CSV, human hepatocytes, read-out: HLH t1/2
[6] = Figures 3-5, cryopreserved human hepatocytes, read-out: half-life (t1/2)

Cc1sc2c(c1C)C(c1ccc(Cl)cc1)=N[C@@H](CC(=O)NCCOCCOCCNc1cccc3c1C(=O)N(C1CCC(=O)NC1=O)C3=O)c1nnc(C)n1-2 (stereo partly drawn) [Compound 5, 2-((S)-4-(4-Chlorophenyl)-2,3,9-trimethyl-6H-thieno[3,2-f][1,2,4]triazolo[4,3-a][1,4]diazepin-6-yl)-N-(2-(2-(2-((2-(2,6-dioxopiperidin-3-yl)-1,3-dioxoisoindolin-4-yl)amino)ethoxy)ethoxy)ethyl)acetamide]
half-life at 1 µM [1, 4]: 49.4 min | half-life at 1 µM [1, 5]: 49.4 min | half-life at 1 µM (CYP3A4): 1.1 min

O=C(COc1c(-c2csc(N3CCOCC3)n2)ccc(F)c1F)NCCCCCCNc1cccc2c1C(=O)N(C1CCC(=O)NC1=O)C2=O (stereo not drawn) [Compound 29, 2-(2,3-Difluoro-6-(2-morpholinothiazol-4-yl)phenoxy)-N-(6-((2-(2,6-dioxopiperidin-3-yl)-1,3-dioxoisoindolin-4-yl)amino)hexyl)acetamide]
half-life at 1 µM [1, 4]: 53.5 min | half-life at 1 µM [1, 5]: 53.5 min | half-life at 1 µM (CYP3A4): 7.4 min

Cc1ncsc1-c1ccc([C@H](C)NC(=O)[C@@H]2C[C@@H](O)CN2C(=O)[C@@H](NC(=O)CCCCNC(=O)COc2c(-c3csc(N4CCOCC4)n3)ccc(F)c2F)C(C)(C)C)cc1 [Compound 33]
half-life at 1 µM [1, 6]: 74.3 min | half-life at 1 µM [1, 4]: 74.3 min | half-life at 1 µM [1, 5]: 74.3 min | half-life at 1 µM [2]: > 90 min | reactions observed in human liver cytosol [3]: the hydrolysis of an amide and an oxidation | hAOX percentage of substrate left at the final time point of analysis [3]: 83.5% | hAOX t1/2 [3]: > 90 min

Cc1ncsc1-c1ccc([C@H](C)NC(=O)[C@@H]2C[C@@H](O)CN2C(=O)[C@@H](NC(=O)CCCCN(C)C(=O)COc2c(-c3csc(N4CCOCC4)n3)ccc(F)c2F)C(C)(C)C)cc1 [Compound 34]
half-life at 1 µM [1, 4]: 86.1 min | half-life at 1 µM [1, 5]: 86.1 min | half-life at 1 µM [2]: > 90 min | reactions observed in human liver cytosol [3]: the hydrolysis of an amide and an oxidation | hAOX percentage of substrate left at the final time point of analysis [3]: 83.4% | hAOX t1/2 [3]: > 90 min

Cc1ncsc1-c1ccc([C@H](C)NC(=O)[C@@H]2C[C@@H](O)CN2C(=O)[C@@H](NC(=O)CCCCCCNC(=O)COc2c(-c3csc(N4CCOCC4)n3)ccc(F)c2F)C(C)(C)C)cc1 [Compound 35]
half-life at 1 µM [1, 6]: 25 min | half-life at 1 µM [1, 4]: 25 min | half-life at 1 µM [1, 5]: 25 min | half-life at 1 µM (CYP3A4): 1.7 min

Cc1ncsc1-c1ccc([C@H](CC(=O)NCCCCCCNC(=O)COc2c(-c3csc(N4CCOCC4)n3)ccc(F)c2F)NC(=O)[C@@H]2C[C@@H](O)CN2C(=O)[C@@H](NC(=O)C2(F)CC2)C(C)(C)C)cc1 [Compound 40]
half-life at 1 µM [1, 6]: 66.7 min | half-life at 1 µM [1, 4]: 66.7 min | half-life at 1 µM [1, 5]: 66.7 min | half-life at 1 µM (CYP3A4): 22.6 min
